The values below come from patent US8992932B2, “Binder-drug conjugates (ADCs) and use thereof” (Seattle Genetics, Inc., priority 2011, dated 2015).

Where “and” joins values, the source holds several entries; their conditions need not be identical. Identical values can stand only once. Counter-ions that a name gives are not always drawn. Square brackets hold non-standard residues; d marks the D form. Peptide text beside a SMILES is read from it. * marks the point of attachment. X3 = CC(C)[C@@H](C(=O)*)N(C)CCOCCOCCOCCC(=O)NCCCC[C@H](N)C(=O)O; Dolaproine = CO[C@@H]([C@@H]1CCCN1)[C@@H](C)C(=O)O; Dil = CC[C@H](C)[C@H](NC)[C@@H](CC(=O)O)OC; Oxazinan2yl(1,2) = C1CCN(*)OC1; NMeV = CN[C@H](C(=O)O)C(C)C

One series relates to tubulin. The experiment in a line: Fluorescence-based microtubule polymerisation assay (DAPI). The class given is biochemical. Here is the method:
Tubulin polymerization was investigated using the “Fluorescence-based Microtubule Polymerisation Assay Kit” from Cytoskeleton (Denver, Colo., USA; order number: BK011). With this assay, GTP is added to unpolymerized tubulin, allowing polymerization to take place spontaneously. The assay is based on the binding of the fluorophore 4′,6-diamidino-2-phenylindole (DAPI) to tubulin. Free and bound DAPI can be differentiated on the basis of different emission spectra.
[…] In addition to the buffer control, paclitaxel, with a polymerization-increasing effect, and vinblastin, with a polymerization inhibiting effect, were run additionally as assay controls. Measurement was carried out using 96-well plates with a half base area. The kinetics of the tubulin polymerization were monitored in a Fluorimeter at 37° C. for 1 hour. The excitation wavelength was 355 nm, and emission was monitored at 460 nm. For the region of linear increase within the first 10 minutes, a calculation was made of the change in fluorescence per minute (AF/min), which represents the polymerization rate of the microtubuli. The potency of the test substances was quantified on the basis of their respective reduction of the polymerization rate.

The next series has as its system Caco-2 cells. Kind of series: Cell permeability flux assay using Caco-2 cells. The class given is in vitro ADME. The settings on record: basal to apical, 2 hours. As to the method: The cell permeability of a substance can be investigated by means of in vitro testing in a flux assay using Caco-2 cells [M. D. Troutman and D R Thakker, Pharm. Res. 20 (8), 1210-1224 (2003)]. For this purpose, the cells were cultured for 15-16 days on 24-well filter plates. For the determination of permeation, the respective working example was applied in a HEPES buffer to the cells either apically (A) or basally (B) and incubated for 2 hours. After 0 hours and after 2 hours, samples were taken from the cis and trans compartments. The samples were separated by HPLC (Agilent 1200, Boblingen, Germany) using reverse phase columns. The HPLC system was coupled via a Turbo Ion Spray Interface to a Triple Quadropol mass spectrometer API 4000 (Applied Biosystems Applera, Darmstadt, Germany). The permeability was evaluated on the basis of a Papp value, which was calculated using the formula published by Schwab et al. [D. Schwab et al., J. Med. Chem. 46, 1716-1725 (2003)].

The next series has as its target T1, P-glycoprotein (P-gp) (Homo sapiens, UniProt P08183).
T1 construct: expressed in transfected cells; host or cells: LLC-PK1 (pig kidney) cells transfected with human MDR1 (L-MDR1 cells)
The experiment in a line: P-gp substrate flux assay in L-MDR1 cells. The settings on record: L-MDR1 cells (P-gp overexpressing LLC-PK1); basal to apical; 2 hours. It counts as in vitro ADME. As to the method:
The substrate properties of a substance for P-gp (ABCB1) were determined by means of a flux assay using LLC-PK1 cells which overexpress P-gp (L-MDR1 cells) [A. H. Schinkel et al., J. Clin. Invest. 96, 1698-1705 (1995)]. For this purpose, the LLC-PK1 cells or L-MDR1 cells were cultured on 96-well filter plates for 3-4 days. For determination of the permeation, the respective test substance, alone or in the presence of an inhibitor (such as Ivermectin or Verapamil, for example), was applied in a HEPES buffer to the cells either apically (A) or basally (B) and incubated for 2 hours. After 0 hours and after 2 hours, samples were taken from the cis and trans compartments. The samples were separated by HPLC using reverse phase columns. The HPLC system was coupled via a Turbo Ion Spray Interface to a Triple Quadropol mass spectrometer API 3000 (Applied Biosystems Applera, Darmstadt, Germany). The permeability was evaluated on the basis of a Papp value which was calculated using the formula published by Schwab et al. [D. Schwab et al., J. Med. Chem. 46, 1716-1725 (2003)].

T1 sequence (P08183 whole entry): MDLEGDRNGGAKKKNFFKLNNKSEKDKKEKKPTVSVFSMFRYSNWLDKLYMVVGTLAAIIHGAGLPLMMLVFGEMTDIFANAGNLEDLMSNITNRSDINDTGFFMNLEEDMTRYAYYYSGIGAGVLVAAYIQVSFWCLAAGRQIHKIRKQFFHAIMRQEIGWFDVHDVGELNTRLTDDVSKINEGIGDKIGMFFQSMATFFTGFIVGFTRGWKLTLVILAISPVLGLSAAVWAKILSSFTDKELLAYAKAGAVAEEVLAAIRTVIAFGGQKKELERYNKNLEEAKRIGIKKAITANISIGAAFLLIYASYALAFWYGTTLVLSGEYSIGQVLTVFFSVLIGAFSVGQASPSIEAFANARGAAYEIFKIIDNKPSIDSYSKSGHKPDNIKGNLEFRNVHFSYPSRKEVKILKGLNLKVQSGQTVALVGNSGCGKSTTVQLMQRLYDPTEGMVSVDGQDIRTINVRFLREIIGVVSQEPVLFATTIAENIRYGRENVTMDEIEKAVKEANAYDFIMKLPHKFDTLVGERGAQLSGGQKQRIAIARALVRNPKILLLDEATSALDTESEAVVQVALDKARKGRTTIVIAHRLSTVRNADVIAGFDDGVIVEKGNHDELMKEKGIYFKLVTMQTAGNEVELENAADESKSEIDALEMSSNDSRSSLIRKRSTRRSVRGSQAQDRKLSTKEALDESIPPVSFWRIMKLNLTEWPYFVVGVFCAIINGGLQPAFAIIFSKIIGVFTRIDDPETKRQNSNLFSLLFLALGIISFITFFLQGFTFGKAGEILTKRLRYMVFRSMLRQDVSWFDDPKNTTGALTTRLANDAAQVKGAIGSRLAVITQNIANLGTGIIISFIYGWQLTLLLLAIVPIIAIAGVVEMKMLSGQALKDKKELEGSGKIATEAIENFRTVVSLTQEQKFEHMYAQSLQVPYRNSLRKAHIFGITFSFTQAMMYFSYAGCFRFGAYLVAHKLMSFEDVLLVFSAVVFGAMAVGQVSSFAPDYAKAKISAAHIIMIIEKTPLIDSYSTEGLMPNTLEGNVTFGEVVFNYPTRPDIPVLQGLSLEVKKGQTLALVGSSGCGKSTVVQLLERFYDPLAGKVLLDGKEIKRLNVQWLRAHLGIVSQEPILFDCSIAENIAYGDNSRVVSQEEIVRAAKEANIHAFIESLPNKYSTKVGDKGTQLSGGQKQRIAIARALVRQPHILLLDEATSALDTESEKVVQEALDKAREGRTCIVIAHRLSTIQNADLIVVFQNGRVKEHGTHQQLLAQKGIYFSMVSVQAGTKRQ

`CC[C@H](C)[C@@H]([C@@H](CC(=O)N1CCC[C@H]1[C@H](OC)[C@@H](C)C(=O)N[C@@H](Cc1ccccc1)C(=O)O)OC)N(C)C(=O)[C@@H](NC(=O)[C@@H](NC)C(C)C)C(C)C` [MMAF, monomethylauristatin F, reference compound] (H-[NMeV]V[Dil][Dolaproine]F-OH): the “Effect on tubulin polymerization (in words)” value in the series with tubulin is “inhibit tubulin polymerization as a function of their concentration”.

On to “N-[6-(3-{[(2R)-2-Amino-2-carboxyethyl]sulphanyl}-2,5-dioxopyrrolidin-1-yl)hexyl]-N-methyl-L-valyl-N-[(3R,4S,5S)-1-{(2S)-2-[(1R,2R)-3-{R1S)-1-carboxy-2-(1H-indol-3-yl)ethyl]amino}-1-methoxy-2-methyl-3-oxopropyl]pyrrolidin-1-yl}-3-methoxy-5-methyl-1-oxoheptan-4-yl]-N-methyl-L-valinamide [Example 75]”, for which the figures for the “Tubulin polymerization in the presence of toxophore in [%]. Tubulin polymerization rate at 1 μM MMAF set at 100%” value in the series on tubulin (toxophore 1 μM) and in the series with tubulin (toxophore 10 μM) were 107% and 25%, respectively. Moreover, the “Papp (B-A)” value worked out at 0.1 ×10⁻⁶ cm/s with Caco-2 cells and 0.4 ×10⁻⁶ cm/s at P-glycoprotein (P-gp).

For the compound `CC[C@H](C)[C@@H]([C@@H](CC(=O)N1CCC[C@H]1[C@H](OC)[C@@H](C)C(=O)N[C@@H](Cc1c[nH]c2ccccc12)C(=O)N1CCCCO1)OC)N(C)C(=O)[C@@H](NC(=O)[C@H](C(C)C)N(C)CCOCCOCCOCCC(=O)NCCCC[C@H](N)C(=O)O)C(C)C` [Example 117, N-[(18S)-18-Amino-18-carboxy-12-oxo-3,6,9-trioxa-13-azaoctadec-1-yl]-N-methyl-L-valyl-N-[(3R,4S,5S)-1-{(2S)-2-[(1R,2R)-3-{[(2S)-3-(1H-indol-3-yl)-1-(1,2-oxazinan-2-yl)-1-oxopropan-2-yl]amino}-1-methoxy-2-methyl-3-oxopropyl]pyrrolidin-1-yl}-3-methoxy-5-methyl-1-oxoheptan-4-yl]-N-methyl-L-valinamide trifluoroacetate] (X3-V[Dil][Dolaproine]W-{Oxazinan2yl(1,2)}), the “Tubulin polymerization in the presence of toxophore in [%]. Tubulin polymerization rate at 1 μM MMAF set at 100%” value with tubulin (toxophore 1 μM, trifluoroacetate) is 60% and 78%.
